Reference: patent US8163684B2, “Antimicrobials having polyquaternary ammoniums and alcohol-bearing amidoamines and methods for their use” (Abbott Medical Optics Inc., priority 2008, dated 2012)

Experiments:
C. albicans = test: log drop in 6 hours in lens case with PureVision lens, C. albicans; assay type: cell-based, Candida albicans
Source text: (§1) Approximately three (3) mL of each solution was introduced into a lens case containing a PureVision® soft contact lens. Each contact lens was maintained in this solution at room temperature for about six (6) hours. The amidoamine used was ricinoleamidopropyl dimethylamine (RAPD), an amidoamine with an alcohol group. Table 1 below provides the ingredients of the contact lens care solutions tested as well as the activity of the various solutions against Candida and Fusarium after six hours.
(§2) To test the biocidal efficacy of a solution comprising the synergistic combination of a polyquaternary ammonium compound and an amidoamine having an alcohol group, four (4) solutions were prepared by blending together the components provided in Table 4. Approximately three (3) mL of three of the solutions was placed into a test tube with A. polyphaga. When utilized, the amidoamine was RAPD and the polyquaternary ammonium compound was polyquaternium-1. Table 4 below provides the ingredients of the contact lens care solutions tested as well as the activity of the solutions against Acanthamoeba polyphaga after six hours.

S. marcescens [1] = test: log drop at contact time of 6 hours in test tube without lenses, S. marcescens; assay type: cell-based
Description: To test the biocidal efficacy of other solutions comprising the synergistic combination of a polyquaternary ammonium compound and an amidoamine having an alcohol group, three (3) solutions were prepared by blending together the components provided in Table 2. Approximately three (3) mL was placed into a test tube with S. marcescens. When utilized, the amidoamine was RAPD and the polyquaternary ammonium compound was polyquaternium-1. Table 2 below provides the ingredients of the contact lens care solutions tested as well as the activity of the solutions against S. marcescens after six hours. Further testing was performed to test the biocidal efficacy of other solutions comprising the synergistic combination of a polyquaternary ammonium compound and an amidoamine having an alcohol group. Approximately three (3) mL was placed into a test tube with S. marcescens. When utilized, the amidoamine was RAPD and the polyquaternary ammonium compound was polyquaternium-1. Table 3 below provides the ingredients of the contact lens care solutions tested as well as the activity of the solutions against S. marcescens after six hours.

F. solani = test: log drop in 6 hours in lens case with PureVision lens, F. solani; assay type: cell-based; details: for log drop in 6 hours in lens case with PureVision lens, F. solani: sole antimicrobial, Table 1 solution, room temperature
Source text: as §1

S. marcescens [2] = test: log drop at contact time of 6 hours in lens case with PureVision lens, S. marcescens; assay type: cell-based; details: Table 2 solution
Description: To test the biocidal efficacy of other solutions comprising the synergistic combination of a polyquaternary ammonium compound and an amidoamine having an alcohol group, three (3) solutions were prepared by blending together the components provided in Table 2. […] When utilized, the amidoamine was RAPD and the polyquaternary ammonium compound was polyquaternium-1. Table 2 below provides the ingredients of the contact lens care solutions tested as well as the activity of the solutions against S. marcescens after six hours.

Acanthamoeba polyphaga = test: log drop in 6 hours in test tube, Acanthamoeba polyphaga; assay type: cell-based
Description: as §2, with “hours. To test the biocidal efficacy of other solutions comprising the synergistic combination of a polyquaternary ammonium compound and an amidoamine having an alcohol group, three (3) solutions were prepared by blending together the components provided in Table 5. Approximately three (3) mL of two of the solutions was placed into a test tube with A. polyphaga. When utilized, the amidoamine was RAPD and the polyquaternary ammonium compound was polyquaternium-1. Table 5 below provides the ingredients of the contact lens care solutions tested as well as the activity of the solutions against A. polyphaga after six hours.” for “hours.”

Fusarium = details: stated as known; cited from earlier work
[3] = system: trophzoite and cyst-type Acanthamoeba; details: stated as known; cited from earlier work
[4] = RAPD 0.0005 % w/w, no CPC, no PQ-1, Table 4 solution
[5] = RAPD as the sole antimicrobial agent, Table 1 solutions

Compound: CCCCCC[C@@H](O)C/C=C\CCCCCCCC(=O)NCCCN(C)C [RAPD, ricinoleamidopropyl dimethylamine]
- log drop in 6 hours in lens case with PureVision lens, C. albicans (C. albicans; RAPD 0.0002 % w/w, sole antimicrobial, Table 1 solution, room temperature): 0.26 log
- log drop in 6 hours in lens case with PureVision lens, C. albicans (C. albicans; [4]): <0.28 log
- log drop in 6 hours in lens case with PureVision lens, C. albicans (C. albicans; RAPD 0.0005 % w/w, sole antimicrobial, Table 1 solution, room temperature): 0.33 log
- log drop in 6 hours in lens case with PureVision lens, C. albicans (C. albicans; RAPD 0.001 % w/w, sole antimicrobial, Table 1 solution, room temperature): 0.21 log
- biocidal activity against Candida (in words) (C. albicans; [5]): very low biocidal activity
- log drop at contact time of 6 hours in test tube without lenses, S. marcescens (S. marcescens [1]; RAPD 0.0005 % w/w, no PQ-1, Table 3 solution): 0.44 log
- log drop at contact time of 6 hours in test tube without lenses, S. marcescens (S. marcescens [1]; RAPD 0.001 % w/w, no PQ-1, Table 3 solution): 1.51 log
- log drop at contact time of 6 hours in test tube without lenses, S. marcescens (S. marcescens [1]; RAPD 0.002 % w/w, no PQ-1, Table 2 solution): 1.77 log
- log drop in 6 hours in lens case with PureVision lens, F. solani (F. solani; RAPD 0.0002 % w/w): 0.48 log
- log drop in 6 hours in lens case with PureVision lens, F. solani (F. solani; RAPD 0.0005 % w/w): 0.37 log
- log drop in 6 hours in lens case with PureVision lens, F. solani (F. solani; RAPD 0.001 % w/w): 0.35 log
- biocidal activity against Fusarium (in words) (F. solani; [5]): very low biocidal activity
- log drop at contact time of 6 hours in lens case with PureVision lens, S. marcescens (S. marcescens [2]; RAPD 0.002 % w/w, no PQ-1): 0.91 log
- log drop in 6 hours in test tube, Acanthamoeba polyphaga (Acanthamoeba polyphaga; [4]): 0.18 log
- log drop in 6 hours in test tube, A. polyphaga (Acanthamoeba polyphaga; RAPD 0.002 % w/w, no PQ-1, no CPC, Table 5 solution): 1.90 log

Compound: CCCCC(CC)CNC(=N)NC(=N)NCCCCCCNC(=N)NC(=N)NCC(CC)CCCC (stereo not shown) [alexidine]
- biocidal activity against Fusarium (in words) (Fusarium): not very biocidal
- biocidal activity against trophzoite and cyst-type Acanthamoeba (in words) [3]: very biocidal

Compound: poly[(dimethyliminio)-2-butene-1,4-diylchloride (1:1)], a-[4-[tris(2-hydroxyethyl)ammonio]-2-buten-1-yl]-w-[tris(2-hydroxyethyl)ammonio]-chloride [PQ-1]
- log drop at contact time of 6 hours in test tube without lenses, S. marcescens (S. marcescens [1]; PQ-1 0.001 % w/w, no RAPD, citrate/borate solution of Tables 2 and 3): 1.53 log
- log drop at contact time of 6 hours in lens case with PureVision lens, S. marcescens (S. marcescens [2]; PQ-1 0.001 % w/w, no RAPD): 1.07 log
